Measured values reported in US20220288052A1, “COMPOUND FOR COMBINATION TREATMENT” (priority 2019, published 2022).

Tests used:
[1] = system: C57 mice; test: Mouse tail suspension test (mTST); format: in vivo; conditions: i.p. 30 min
Experimental: C57 males, 25-28 g, Taconic, 16/8-06. Mice acclimatized to ground floor 5 days before testing. Mice saline injected once a day twice before test day. 22° C., N=7-8.

[2] = system: NMRI mice; test: Mouse forced swim test (mFST); format: in vivo; conditions: mFST (NMRI), p.o. 60 min
Experimental: Compound (I) was tested in two of the most widely used behavioural screens for predicting antidepressant effects in the clinic: the mouse forced swim test (mFST) and mouse tail suspension test (mTST).
In order to further characterize the role played by 5-HT and DA-ergic neurotransmission in the antidepressant-like effects of compound (I), the potential involvement of 5-HT1A and D1 receptors was investigated in the mFST.

[3] = system: NMRI mice; test: Locomotor activity (mLA); format: in vivo, mouse; conditions: mLA; for MED: p.o. 0 min
Experimental: FIG. 8: The effects of compound (I) on locomotor activity. Compound (I) p.o. in NMRI mice. TSE Motility.
(§1) Compound (I) was tested in a classical test often used to measure the ability of a compound to block the reuptake of 5-HT in vivo: nialamide-induced 5-HT syndrome (m5-HT). In addition, compound (I) was tested in a locomotor activity paradigm (mLA) as a measure of its ability to block the reuptake of DA and therefore induce motility. It is generally accepted that >60% DA transporter blockade is needed to induce increased motility in this test.

[4] = system: nialamide pre-treated mice; test: Nialamide-induced 5-HT syndrome (m5-HT); format: in vivo, mouse; conditions: m5-HT, p.o. 0 min
Experimental: 50 mg/kg nialamide s.c. t=120 min. Compound (I) p.o. t=0. n=4.
as §1

[5] = system: mice; test: Mouse zero maze (mZM); format: in vivo; conditions: mZero maze, p.o., 7 days OD
Experimental: Mice were treated (peroral administration) for 7 days with either, vehicle, duloxetine (10 mg/kg), and compound I (0.1 mg/kg, 1 mg/kg, and 3 mg/kg) (n=8 in each group).
(§2) Compound (I) was tested in three widely used behavioural screens for predicting anxiolytic effects in the clinic: the mouse marble burying test (mMB), mouse zero maze (mZM) and mouse stress-induced hyperthermia test (mSIH).

[6] = system: NMRI mice; test: Mouse marble burying test (mMB); format: in vivo; conditions: Marble burying, p.o., −60 min
Experimental: FIG. 13: Marble burying. In the marble-burying test mice exposed to a novel object (marbles) bury them in the sawdust floor covering. Compounds showing anxiolytic-like activity decrease the number of buried marbles at non-sedative doses. […] The number of marbles covered by sawdust was counted at the end of a 60-min session.
as §2

[7] = system: NMRI mice; test: Mouse stress-induced hyperthermia test (mSIH); format: in vivo; conditions: mSIH, p.o., −60 min
Experimental: FIG. 14: Stress-induced hyperthermia. When mice are confronted with a stress-full event, the body temperature rises.
as §2

[8] = target: T1, dopamine transporter (DAT) (Mus musculus, UniProt Q61327); test: MPTP model of DAT inhibition (striatal dopamine depletion); format: in vivo, C57 mouse; set-up: Dopamine Mean ± SEM / DOPAC Mean ± SEM / HVA Mean ± SEM: unit not given here; conditions: MPTP 25 mg/kg s.c. alone
T1 construct: in vivo DAT transporter occupancy (open bars) in mouse striatum; from tissue; host or cells: mouse striatum (in vivo; C57 mice in the MPTP model)
Description: In this model compound (I) induced protection against the dopamine depletion induced by the entry of the MPTP metabolite MPP+ into the dopamine terminals of the mouse C57 striatal tissue.

T1 sequence (Q61327 whole entry): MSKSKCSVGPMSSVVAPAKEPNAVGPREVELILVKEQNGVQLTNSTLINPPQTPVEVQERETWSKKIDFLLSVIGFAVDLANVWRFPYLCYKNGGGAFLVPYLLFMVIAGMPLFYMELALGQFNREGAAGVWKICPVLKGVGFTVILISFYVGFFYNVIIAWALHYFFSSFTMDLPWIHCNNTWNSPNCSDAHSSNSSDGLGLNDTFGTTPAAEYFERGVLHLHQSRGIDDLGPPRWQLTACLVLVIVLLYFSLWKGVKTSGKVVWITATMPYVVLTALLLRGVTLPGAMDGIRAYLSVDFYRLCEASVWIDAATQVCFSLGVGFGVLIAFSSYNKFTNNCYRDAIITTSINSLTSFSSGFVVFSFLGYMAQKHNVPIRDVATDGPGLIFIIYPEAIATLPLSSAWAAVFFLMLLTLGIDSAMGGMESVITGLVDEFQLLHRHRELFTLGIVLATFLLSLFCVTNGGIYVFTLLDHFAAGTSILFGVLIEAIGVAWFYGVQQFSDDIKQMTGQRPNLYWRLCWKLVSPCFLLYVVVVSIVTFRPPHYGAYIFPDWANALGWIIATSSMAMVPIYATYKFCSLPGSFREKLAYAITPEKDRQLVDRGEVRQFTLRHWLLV

Structure (SMILES)	MED [1]	MED [2]	MED [3]	MED [4]	Effect on locomotor activity ([3]; p.o.)	MED [5]	MED [6]	MED [7]	DOPAC Mean ± SEM [8]	HVA Mean ± SEM [8]	Dopamine Mean ± SEM ([8]; mouse striatal tissue)
CN(C)CCCC1(c2ccc(F)cc2)OCc2cc(C#N)ccc21 (stereo not drawn) [Citalopram, reference compound]	<5 mg/kg	10 mg/kg	>60 mg/kg	10 mg/kg	–	–	–	–	–	–	–
CNCC[C@H](Oc1cccc2ccccc12)c1cccs1 [Duloxetine, reference compound]	10 mg/kg	30 mg/kg	>60 mg/kg	10 mg/kg	without effect	<10 mg/kg	10 mg/kg	>30 mg/kg	–	–	–
CN1CC=C(c2ccccc2)CC1 [MPTP, reference compound]	–	–	–	–	–	–	–	–	1 ± 0.2	0.7 ± 0.1	4.2 ± 0.6
